What all share (experiment): cells
One experiment relates to 786-O. As to conditions: Homo sapiens, 786-0, 144 h, read-out: AB8939.
In a further experiment the test system is A-549. As to conditions: Homo sapiens, A549, 144 h, read-out: AB8939.
The next experiment deals with A4573. The note with it: A4573, 144 h, read-out: AB8939.
Another experiment has as its system ACHN. As to conditions: Homo sapiens, ACHN, 144 h, read-out: AB8939.
The subject of the next experiment is CCRF-CEM. The note with it: Homo sapiens, CCRF-CEM, 144 h, read-out: AB8939.
Another experiment has as its system HL-60. As to conditions: Homo sapiens, HL-60, 144 h, read-out: AB8939.
For another experiment, the system named is HRT-18. The note with it: Homo sapiens, HRT-18, 144 h, read-out: AB8939.
The subject of a further experiment is LnCaP. The note with it: Homo sapiens, LNCaP, 144 h, read-out: AB8939.
The test system of the next experiment is MCF-7. The note with it: Homo sapiens, MCF7, 144 h, read-out: AB8939.
The subject of a further experiment is MOLM-14. As to conditions: Homo sapiens, MOLM-14, 144 h, read-out: AB8939.
A further experiment concerns NOMO-1. As to conditions: Homo sapiens, NOMO-1, 144 h, read-out: AB8939.
The test system of another experiment is PC-3. The note with it: Homo sapiens, PC-3, 144 h, read-out: AB8939.
Another experiment deals with PLC-PRF5. As to conditions: Homo sapiens, PLC-PRF-5, 144 h, read-out: AB8939.
The next experiment has as its system REC-1. The note with it: Homo sapiens, Rec1, 144 h, read-out: AB8939.
In another experiment the test system is SK-N-MC. The note with it: Homo sapiens, SK-N-MC, 144 h, read-out: AB8939.
For a further experiment, the system named is SW-872. The note with it: Homo sapiens, SW872, 144 h, read-out: AB8939.
Another experiment relates to THP-1. As to conditions: Homo sapiens, THP-1, 144 h, read-out: AB8939.
In another experiment the test system is U-118. As to conditions: 144 h, read-out: AB8939.
The test system of another experiment is U2OS. As to conditions: Homo sapiens, U2OS, 144 h, read-out: AB8939.

Molecules are shown by their SMILES. pIC50: −log10 of the molar value.

As to `CCOCc1ccc(C)c(Nc2ncc(-c3ccc(N4CCNC4=O)cc3)o2)c1` [AB8939], the pIC50 in the experiment on 786-O is 7.06; with A-549, 9.00; with A4573, 8.52; in the experiment on ACHN it was 8.40; in the experiment with CCRF-CEM, 9.00; in the experiment on HL-60, 7.85. For the same compound, the pIC50 with HRT-18 was 9.00; in the experiment on LnCaP it was 8.30; in the experiment on MCF-7 it was 6.91; in the experiment on MOLM-14 it was 7.85; in the experiment with NOMO-1, 7.34; with PC-3, 8.10. In addition, the pIC50 in the experiment with PLC-PRF5 was 8.70; with REC-1, 8.40; in the experiment with SK-N-MC it was 9.00; in the experiment with SW-872, 9.00; in the experiment on THP-1, 7.31; in the experiment on U-118 it was 9.00. The pIC50 with U2OS is 9.00.

The record behind these values is paper doi:10.64898/2025.12.10.692519v1 (biorxiv, 2025).
